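48-hour exposure; five concentrations; linearly interpolated endpoints. GI50: concentration for 50% inhibition of growth.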 Activity calls are given as the source filed them. Rule as the data show it: active = GI50 up to about 1.1 µM and inactive = higher.
Tests used:
Test in all cases: NCI tumour cell line growth inhibition, 48 h
[1] = system: 786-0
[2] = system: A498
[3] = system: A549
[4] = system: ACHN
[5] = system: BT-549
[6] = system: CAKI-1
[7] = system: CCRF-CEM
[8] = system: COLO 205
[9] = system: DU-145
[10] = system: EKVX
[11] = system: HCC 2998
[12] = system: HCT-116
[13] = system: HCT-15
[14] = system: HL-60
[15] = system: HOP-62
[16] = system: HOP-92
[17] = system: HT-29
[18] = system: Hs-578T
[19] = system: K562
[20] = system: KM12
[21] = system: LOX IMVI
[22] = system: M14
[23] = system: MCF7
[24] = system: MDA-MB-231
[25] = system: MDA-MB-435
[26] = system: MDA-N
[27] = system: MOLT-4
[28] = system: Malme-3M
[29] = system: NCI-H226
[30] = system: NCI-H23
[31] = system: NCI-H460
[32] = system: NCI/ADR-RES
[33] = system: OVCAR-3
[34] = system: OVCAR-4
[35] = system: OVCAR-5
[36] = system: OVCAR-8
[37] = system: PC-3
[38] = system: RPMI-8226
[39] = system: RXF 393
[40] = system: SF-268
[41] = system: SF-295
[42] = system: SF-539
[43] = system: SK-MEL-28
[44] = system: SK-MEL-2
[45] = system: SK-MEL-5
[46] = system: SK-OV-3
[47] = system: SN12C
[48] = system: SNB-19
[49] = system: SNB-75
[50] = system: SW-620
[51] = system: T47D
[52] = system: TK-10
[53] = system: U-251
[54] = system: UACC-257
[55] = system: UACC-62
[56] = system: UO-31

For `CC(=O)N1CC(=O)N2C(=O)/C(=C/c3ccc(Cl)cc3)N=C12`, the GI50 [1] was > 100 µM (inactive), the GI50 [2] was > 100 µM (inactive) and the GI50 [3] was > 100 µM (inactive). For the same compound, the GI50 [4] was > 100 µM (inactive), the GI50 [5] was > 100 µM (inactive) and the GI50 [6] was > 100 µM (inactive). For the same compound, the GI50 [7] was 45 µM (inactive), the GI50 [8] was > 100 µM (inactive) and the GI50 [9] was > 100 µM (inactive). The GI50 [10] was > 100 µM (inactive), the GI50 [11] was > 100 µM (inactive) and the GI50 [12] was > 100 µM (inactive). The GI50 [13] was > 100 µM, the GI50 [14] was 27.7 µM (inactive) and the GI50 [15] was > 100 µM (inactive). For the same compound, the GI50 [16] was > 100 µM (inactive), the GI50 [17] was > 100 µM (inactive) and the GI50 [18] was 30.9 µM (inactive). For the same compound, the GI50 [19] was 49.1 µM (inactive), the GI50 [20] was > 100 µM (inactive) and the GI50 [21] was > 100 µM (inactive). The GI50 [22] was > 100 µM (inactive), the GI50 [23] was 97.9 µM (inactive) and the GI50 [24] was > 100 µM (inactive). For the same compound, the GI50 [25] was > 100 µM (inactive), the GI50 [26] was > 100 µM (inactive) and the GI50 [27] was 48.3 µM (inactive). The GI50 [28] was > 100 µM (inactive), the GI50 [29] was > 100 µM (inactive) and the GI50 [30] was > 100 µM (inactive). The GI50 [31] was > 100 µM (inactive), the GI50 [32] was > 100 µM (inactive) and the GI50 [33] was > 100 µM (inactive). For the same compound, the GI50 [34] was > 100 µM (inactive), the GI50 [35] was > 100 µM (inactive) and the GI50 [36] was > 100 µM (inactive). For the same compound, the GI50 [37] was > 100 µM (inactive), the GI50 [38] was 50.7 µM (inactive) and the GI50 [39] was > 100 µM (inactive). For the same compound, the GI50 [40] was > 100 µM (inactive), the GI50 [41] was > 100 µM (inactive) and the GI50 [42] was > 100 µM (inactive). For the same compound, the GI50 [43] was > 100 µM (inactive), the GI50 [44] was > 100 µM (inactive) and the GI50 [45] was > 100 µM (inactive). The GI50 [46] was > 100 µM (inactive), the GI50 [47] was > 100 µM (inactive) and the GI50 [48] was > 100 µM (inactive). For the same compound, the GI50 [49] was > 100 µM (inactive), the GI50 [50] was > 100 µM (inactive) and the GI50 [51] was 53.1 µM (inactive). The GI50 [52] was > 100 µM (inactive), the GI50 [53] was > 100 µM (inactive) and the GI50 [54] was > 100 µM (inactive). The GI50 [55] was > 100 µM (inactive) and the GI50 [56] was > 100 µM (inactive).
